The nature of series [1]: Replicon Assay (Example B), Alamar Blue cytotoxicity CC50. The note with it: human, lower value of the cell pair. Type of series: cell-based. From the text: Thus, Huh-7 cells persistently infected with an HCV-RNA construct (Bartenschlager, R. Hepatitis C replicons: potential role for drug development. Nature Rev. Drug Discov. 1, 911-916 (2002)) comprising: 5′ and 3′ non-translated regions (NTR); the non-structural genes NS3 to NS5b; as well as the G418 drug resistance gene, neomycin, (for selection of cells carrying HCV replicon RNA) fused to the firefly Luciferase reporter gene (pFKI3889Iuc-ubi-neo/NS3-3′/ET) were used to determine the cell based antiviral activity of compounds using luciferase activity as an indirect readout of HCV RNA load. In this assay […] huh-7 cells persistently infected with the HCV subgenomic replicon construct above were plated/well in a 96 well tissue culture plate. The cells were allowed to attach overnight in DMEM medium supplemented with 10% FBS 1% NEAA, and 250 μg/ml gentamicin. The following day the medium was replaced with 200 μl/well of fresh medium as described above lacking gentamicin. Semilog dilutions of compounds in medium were then added to triplicate wells (non-edge) of the cultured cells to give a 0.1% DMSO final concentration. Plates were then incubated at 37° C. in an atmosphere of 5% CO2 and air for 72 h. […] The plate was then read at 535 nm (excitation) and 590 nm (emission) on a SpectraMax Gemini reader (Molecular Devices) to determine the number of viable cells by measuring the conversion of rezasurin (Alamar blue) to resorufin in response to mitochondrial activity. In order to determine the antiviral effect of these compounds EC50 values were determined by measuring the luciferase activity of the cells. Alamar blue solution was removed from the wells and replaced with 100 μl/well of medium along with 100 μl/well of Bright-Glo reagent and incubated at room temperature for 5 minutes before transferring 100 μl/well to a white bottom 96 well plate to read in a luminometer as described in the Bright-Glo Luciferase Assay System protocol (promega).
A general note: Replicon systems follow genome replication, usually without infectious particles.

The next series concerns the target full length NS3/4a (Hepatitis C virus genotype 1b (isolate BK) (HCV), UniProt P26663). Briefly: NS3 Protease Assay (Example A), FRET-based. Type of series: biochemical. The gist of the method: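 Initial rates were taken from fluorescence progress curves over 30 min at room temperature, and IC50 was fitted across replicates. In-house full-length NS3/4a cleaved a FRET peptide (5-FAMsp/QXL520) from the NS4A/B site. Medium: 50 mM Tris pH8, 20 mM DTT, 1% CHAPS, 10% glycerol, 5% DMSO.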

Series [2] has as its system HCV subgenomic replicon in Huh-7 cells. Briefly: Replicon Assay (Example B), luciferase readout EC50. Type of series: cell-based. The note with it: Hepatitis C virus, Huh-7, replicon assay, luciferase readout; upper value of the cell pair; read-out: Assay B EC50. Put shortly: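 Huh-7 cells carrying a luciferase-neo HCV subgenomic replicon (NS3–NS5b) were treated with semilog compound dilutions (0.1% DMSO final), in triplicate, for 72 h at 37° C. EC50 came from Bright-Glo luciferase signal as a proxy for replicon RNA; viability was read by Alamar blue.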

Setting [3] is: HCV NS3 protease assay, full length NS3/4a, read-out: Assay A IC50 (μM) average.
[4] abbreviates: read-out: IC50 against the protease activity of the full length NS3/4a.

Where two headings read alike, the source gives them in different places.

Chain of full length NS3/4a (P26663 1027-1657): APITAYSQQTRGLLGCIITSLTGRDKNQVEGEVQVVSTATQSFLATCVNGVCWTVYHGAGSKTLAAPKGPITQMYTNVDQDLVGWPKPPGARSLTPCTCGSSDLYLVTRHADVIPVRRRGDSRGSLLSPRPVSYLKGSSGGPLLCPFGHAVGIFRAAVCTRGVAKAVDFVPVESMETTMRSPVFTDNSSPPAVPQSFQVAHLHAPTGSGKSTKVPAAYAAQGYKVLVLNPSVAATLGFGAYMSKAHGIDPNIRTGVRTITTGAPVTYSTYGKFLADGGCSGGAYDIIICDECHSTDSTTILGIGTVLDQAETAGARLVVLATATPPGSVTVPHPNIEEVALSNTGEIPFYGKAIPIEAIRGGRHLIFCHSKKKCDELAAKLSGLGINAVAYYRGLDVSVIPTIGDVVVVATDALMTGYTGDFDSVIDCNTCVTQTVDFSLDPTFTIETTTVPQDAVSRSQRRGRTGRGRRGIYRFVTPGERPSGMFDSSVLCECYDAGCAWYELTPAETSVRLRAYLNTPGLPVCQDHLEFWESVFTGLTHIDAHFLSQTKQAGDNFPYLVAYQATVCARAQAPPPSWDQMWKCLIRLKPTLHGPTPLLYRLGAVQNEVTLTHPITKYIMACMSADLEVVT

For the compound `C[C@@H](CC(N)=O)N[C@@H](c1ccc(Cl)c(C(=O)c2ccccc2)c1F)C1CC1` [Example 103, (3S)-3-{[(R)-(3-benzoyl-4-chloro-2-fluorophenyl)-(cyclopropyl)-methyl]-amino}-butanamide], the 50% cytotoxic concentration (CC50) (commonly the concentration that lowers cell viability or growth by half) at 72 h in series [1] was more than 3000 nM. Besides, the IC50 at full length NS3/4a (setting [3]) is 0.077 µM; on full length NS3/4a (setting [4]), less than 1 µM. Moreover, the EC50 (as a rule, the concentration at which the effect is half-maximal) in series [2] came out at 5.8 nM.
`CC[C@@H](N[C@@H](C)CC(N)=O)c1ccc(Cl)c(C(=O)c2ccc[n+]([O-])c2)c1F` [Example 116, (S)-3-{(R)-1-[4-Chloro-2-fluoro-3-(1-oxy-pyridine-3-carbonyl)-phenyl]-propylamino}-butyramide] gave a 50% cytotoxic concentration (CC50) at 72 h in series [1] of more than 3000 nM. The IC50 on full length NS3/4a (setting [3]) amounted to 0.81 µM. Moreover, the 50% effective concentration (EC50) in series [2] is more than 3000 nM.
For the compound `CC[C@@H](N[C@@H](C)CC(N)=O)c1ccc(Cl)c(C(=O)c2ccccn2)c1F` [Example 104, (3S)-3-{[(1R)-1-{4-chloro-2-fluoro-3-[(pyridin-2-yl)carbonyl]phenyl}-propyl]amino}butanamide], in series [1], the CC50 at 72 h is more than 3000 nM. The figures for the IC50 on full length NS3/4a (setting [3]) and on full length NS3/4a (setting [4]) were 0.24 µM and less than 1 µM, respectively. In series [2], the EC50 was found to be 390 nM.
As for `CC[C@@H](N[C@@H](C)CC(N)=O)c1ccc(Cl)c(C(=O)c2ccc(C#N)nc2)c1F` [Example 133, (3S)-3-{[(1R)-1-{4-chloro-3-[(6-cyanopyridin-3-yl)carbonyl]-2-fluorophenyl}propyl]-amino}butanamide], the CC50 at 72 h in series [1] is more than 3000 nM. The IC50 at full length NS3/4a (setting [3]) amounted to 0.12 µM. In addition, the 50% effective concentration (EC50) in series [2] is more than 3000 nM.
Turning to `CC[C@@H](N[C@@H](C)CC(N)=O)c1ccc(Cl)c(C(=O)c2ccc(=O)[nH]c2)c1F` [Example 147, (3S)-3-{[(1R)-1-{4-chloro-2-fluoro-3-[(6-oxo-1,6-dihydropyridin-3-yl)carbonyl]-phenyl}propyl]amino}-butanamide], the half-maximal cytotoxic concentration (CC50) at 72 h in series [1] was more than 10000 nM. For the same compound, the IC50 at full length NS3/4a (setting [3]) is 0.39 µM. For the same compound, in series [2], the EC50 stood at 2100 nM.
On to `CC[C@@H](CC(N)=O)N[C@H](CC)c1ccc(Cl)c(C(=O)c2ccc(N)nc2)c1F` [Example 225, (3S)-3-{[(1R)-1-{3-[(6-aminopyridin-3-yl)carbonyl]-4-chloro-2-fluorophenyl}propyl]amino} pentanamide], for which the CC50 at 72 h in series [1] was more than 3000 nM. Further, the IC50 at full length NS3/4a (setting [3]) came to 0.35 µM. For the same compound, the EC50 in series [2] turned out to be 28 nM.
Take `CC[C@@H](NCC1(C(N)=O)CC1)c1ccc(Cl)c(C(=O)c2cccnc2)c1F` [Example 168, 1-({[(1R)-1-{4-Chloro-2-fluoro-3-[(pyridin-3-yl)carbonyl]phenyl}propyl]amino}methyl)-cyclopropane-1-carboxamide]: in series [1], the 50% cytotoxic concentration (CC50) at 72 h is more than 3000 nM. Further, the IC50 on full length NS3/4a (setting [3]) is 0.55 µM; at full length NS3/4a (setting [4]), less than 1 µM. Also, the EC50 in series [2] is more than 3000 nM.
With `[2H]C([2H])([2H])C([2H])([2H])[C@@H](N[C@@H](C)CC(N)=O)c1ccc(Cl)c(C(=O)c2ccc(N)nc2)c1F` [Example 265, (3S)-3-{[(1R)-1-{3-[(6-aminopyridin-3-yl)carbonyl]-4-chloro-2-fluorophenyl}(2,2,3,3,3-deutero)propyl]amino}-butanamide], in series [1], the CC50 at 72 h was more than 3000 nM. For the same compound, the IC50 at full length NS3/4a (setting [3]) was found to be 0.13 µM. Also, the EC50 in series [2] is 25 nM.
In series [1], `[2H]C([2H])([2H])C([2H])([2H])[C@@H](N[C@@H](C)CC(N)=O)c1ccc(Cl)c(C(=O)c2ccccc2)c1F` [Example 115, (3S)-3-{[(1R)-1-(3-benzoyl-4-chloro-2-fluorophenyl)(2,2,3,3,3-D)propyl]amino}-butanamide] showed a half-maximal cytotoxic concentration (CC50) at 72 h of more than 3000 nM. In addition, the inhibition (usually the percentage by which the read-out fell short of the control) at 0.1 µM on full length NS3/4a (@ 0.1 uM) was 59%. Also, in series [2], the EC50 was 4.1 nM.
`C[C@@H](CC(N)=O)N[C@@H](c1ccc(Cl)c(C(=O)c2ccc(CO)cc2)c1F)C1CC1` [Example 263, (3S)-3-{[(R)-(4-chloro-2-fluoro-3-{[4-(hydroxyl-methyl)phenyl]-carbonyl}phenyl)(cyclo-propyl)-methyl]amino}-butanamide] displayed a CC50 at 72 h in series [1] of 79000 nM. Also, at full length NS3/4a (setting [3]), the IC50 turned out to be 0.11 µM. In addition, in series [2], the EC50 turned out to be 4 nM.
The like results for `CC[C@@H](N[C@@H](C)CC(N)=O)c1ccc(OC)c(C(=O)c2ccc(N)nc2)c1F` [Example 252, (3S)-3-{[(1R)-1-{3-[(6-aminopyridin-3-yl)carbonyl]-2-fluoro-4-methoxyphenyl}propyl]amino}butanamide] were, in that order, more than 1000 nM, 0.18 µM and 130 nM.
For `CC[C@@H](N)c1ccc(Cl)c(C(=O)c2ccc(C#N)cc2)c1F` [Example 9, 4-({3-[(1R)-1-aminopropyl]-6-chloro-2-fluorophenyl}carbonyl)-benzonitrile], the CC50 at 72 h in series [1] is more than 3000 nM. Also, the IC50 was 0.076 µM at full length NS3/4a (setting [3]) and less than 1 µM at full length NS3/4a (setting [4]). In series [2], the EC50 is more than 3000 nM.
On to `CC[C@@H](N[C@@H](C)CC(N)=O)c1ccc(Cl)c(C(=O)c2ccc3c(c2)OCCN3)c1F` [Example 249, (3S)-3-{[(1R)-1-{4-chloro-3-[(3,4-dihydro-2H-1,4-benzoxazin-7-yl)carbonyl]-2-fluorophenyl}propyl]amino} butanamide], for which the CC50 at 72 h in series [1] is more than 1000 nM. The IC50 at full length NS3/4a (setting [3]) worked out at 0.27 µM. In addition, the EC50 in series [2] was determined as 33 nM.
The like results for `CC[C@@H](N[C@@H](C)CC(N)=O)c1ccc(Cl)c(C(=O)c2ccc(F)cc2)c1F` [Example 97, (3S)-3-{[(1R)-1-{4-chloro-2-fluoro-3-[(4-fluorophenyl)-carbonyl]-phenyl}propyl]-amino}-butanamide] were, in that order, more than 3000 nM, 0.047 µM and 19 nM.
With `CC(C)C[C@@H](N[C@@H](C)CC(N)=O)c1ccc(Cl)c(C(=O)c2ccc(N)nc2)c1F` [Example 269, (3S)-3-{[(1R)-1-{3-[(6-aminopyridin-3-yl)carbonyl]-4-chloro-2-fluorophenyl}-3-methylbutyl]amino}-butanamide], the CC50 at 72 h in series [1] is more than 3000 nM. Besides, the IC50 is 1.1 µM on full length NS3/4a (setting [3]) and 1 to 5 µM on full length NS3/4a (setting [4]). The 50% effective concentration (EC50) in series [2] was determined as 70 nM.
`C[C@@H](CC(N)=O)N[C@@H](c1ccc(Cl)c(C(=O)c2ccc(N)cn2)c1F)C1CC1` [Example 237, (3S)-3-{[(R)-{3-[(5-aminopyridin-2-yl)carbonyl]-4-chloro-2-fluorophenyl}(cyclopropyl)methyl]amino}butanamide] displayed a CC50 at 72 h in series [1] of more than 1000 nM. Besides, at full length NS3/4a (setting [3]), the IC50 came to 0.31 µM. For the same compound, the EC50 in series [2] is 47 nM.
Regarding `CC[C@@H](N[C@@H](C)CC(N)=O)c1ccc(Cl)c(C(=O)c2ccc(C(=O)O)cc2)c1F` [Example 144, 4-({3-[(1R)-1-{[(2S)-1-Carbamoylpropan-2-yl]amino}propyl]-6-chloro-2-fluorophenyl}carbonyl)-benzoic acid], the CC50 at 72 h in series [1] is more than 3000 nM. Besides, the IC50 is 1.2 µM on full length NS3/4a (setting [3]) and 1 to 5 µM on full length NS3/4a (setting [4]). In addition, the EC50 in series [2] was more than 3000 nM.
For the compound `CC[C@@H](N[C@@H](C)CC(N)=O)c1ccc(Cl)c(C(=O)c2ccc(N)c(Cl)c2)c1F` [Example 234, (3S)-3-{[(1R)-1-{3-[(4-amino-3-chlorophenyl)carbonyl]-4-chloro-2-fluorophenyl}propyl]amino} butanamide], the half-maximal cytotoxic concentration (CC50) at 72 h in series [1] is more than 1000 nM. Further, the values for the IC50 at full length NS3/4a (setting [3]) and on full length NS3/4a (setting [4]) were 0.14 µM and less than 1 µM, respectively. Besides, the EC50 in series [2] turned out to be 2.8 nM.
The like results for `CC[C@@H](N[C@@H](C)CC(N)=O)c1ccc(Cl)c(C(=O)c2cccc(O)c2)c1F` [Example 227, (3S)-3-{[(1R)-1-{4-chloro-2-fluoro-3-[(3-hydroxyphenyl)carbonyl]phenyl}propyl]amino} butanamide] were, in that order, more than 3000 nM, 0.15 µM, less than 1 µM and 11 nM.
The corresponding values for `CC[C@@H](N[C@@H](C)CC(N)=O)c1ccc(Cl)c(C(=O)c2ccncc2)c1F` [Example 106, (3S)-3-{[(1R)-1-{4-chloro-2-fluoro-3-[(pyridin-4-yl)carbonyl]phenyl}-propyl]amino}butanamide] are more than 3000 nM, 0.11 µM, less than 1 µM and 57 nM.
